# Results from ChEMBL document CHEMBL5316357, “Discovery of Linvencorvir (RG7907), a Hepatitis B Virus Core Protein Allosteric Modulator, for the Treatment of Chronic HBV Infection” (J Med Chem, 2023).
# Assays:
# [1] = Cmax in female Wistar Han rat at 10 mg/kg,po by LC-MS/MS analysis; type: ADME, organism-based; set-up: dose 10 mg/kg, route po; conditions: in vivo
# [2] = Half life in male Wistar Han rat at 10 mg/kg,po by LC-MS/MS analysis; type: ADME, organism-based; conditions: in vivo
# [3] = Octanol-water partition coefficient, logD of the compound at pH 7.4; type: physicochemical
# [4] = AUClast in male Wistar Han rat at 30 mg/kg,po by LC-MS/MS analysis; type: ADME, organism-based; set-up: dose 30 mg/kg, route po; conditions: in vivo
# [5] = Tmax in female Wistar Han rat at 3 mg/kg,po by LC-MS/MS analysis; type: ADME, organism-based; conditions: in vivo
# [6] = AUClast in minipig at 2 mg/kg,iv by LC-MS/MS analysis; type: ADME, organism-based, Sus scrofa domesticus; set-up: dose 2 mg/kg, route iv; conditions: pig, in vivo
# [7] = Oral bioavailability in male Wistar Han rat at 10 mg/kg by LC-MS/MS analysis; type: ADME, organism-based; conditions: in vivo
# [8] = Clearance in rat hepatocyte at 2 uM measured upto 120 mins by LC-MS/MS analysis; type: ADME, cell-based; conditions: hepatocytes
# [9] = Cmax in male minipig at 30 mg/kg,po by LC-MS/MS analysis; type: ADME, organism-based, Sus scrofa domesticus; set-up: dose 30 mg/kg, route po; conditions: pig, in vivo
# [10] = Tmax in female minipig at 30 mg/kg,po by LC-MS/MS analysis; type: ADME, organism-based, Sus scrofa domesticus; conditions: pig, in vivo
# [11] = Tmax in male Wistar Han rat at 10 mg/kg,po by LC-MS/MS analysis; type: ADME, organism-based; conditions: in vivo
# [12] = AUClast in male Wistar Han rat at 3 mg/kg,po by LC-MS/MS analysis; type: ADME, organism-based; set-up: dose 3 mg/kg, route po; conditions: in vivo
# [13] = Oral bioavailability in female cynomolgus monkey at 30 mg/kg by LC-MS/MS analysis; type: ADME, organism-based, Macaca fascicularis; conditions: in vivo
# [14] = Oral bioavailability in female Wistar Han rat at 3 mg/kg by LC-MS/MS analysis; type: ADME, organism-based; conditions: in vivo
# [15] = Cmax in female minipig at 30 mg/kg,po by LC-MS/MS analysis; type: ADME, organism-based, Sus scrofa domesticus; set-up: dose 30 mg/kg, route po; conditions: pig, in vivo
# [16] = biological target: Cytochrome P450 2C9 (Homo sapiens, UniProt P11712); assay: Inhibition of CYP2C9 (unknown origin); type: ADME
# Sequence of Cytochrome P450 2C9 (P11712 whole entry): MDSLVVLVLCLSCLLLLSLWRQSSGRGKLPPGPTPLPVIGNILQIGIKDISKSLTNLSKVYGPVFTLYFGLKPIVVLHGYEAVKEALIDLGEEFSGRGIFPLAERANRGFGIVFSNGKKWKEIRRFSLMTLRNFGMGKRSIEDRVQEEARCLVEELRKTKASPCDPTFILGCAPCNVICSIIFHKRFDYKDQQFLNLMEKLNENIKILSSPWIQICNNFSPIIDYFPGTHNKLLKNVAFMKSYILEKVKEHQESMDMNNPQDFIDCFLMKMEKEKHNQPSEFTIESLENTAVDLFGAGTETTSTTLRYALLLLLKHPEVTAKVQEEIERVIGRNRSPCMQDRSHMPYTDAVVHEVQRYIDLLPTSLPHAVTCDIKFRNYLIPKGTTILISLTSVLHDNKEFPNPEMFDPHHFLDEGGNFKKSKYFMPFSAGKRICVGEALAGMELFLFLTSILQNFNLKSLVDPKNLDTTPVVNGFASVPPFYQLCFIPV
smiles,measurement,setting,value
CCOC(=O)C1=C(CN2CCN3C(=O)N(CC(C)(C)C(=O)O)C[C@@H]3C2)NC(c2nccs2)=N[C@H]1c1cccc(F)c1C [LINVENCORVIR],Cmax,[1],683 ng/mL
same,half-life,[2],1.43 h
same,logD,[3],1.75
same,AUC(0-t),[4],8500 ng·h/mL
same,Tmax,[5],0.5 h
same,AUC(0-t),[6],1370 ng·h/mL
same,bioavailability,[7],26.2%
same,CLhep predicted at 2 µM,[8],11 mL/min/kg
same,Cmax,[9],768 ng/mL
same,Tmax,[10],2 h
same,Tmax,[11],1.5 h
same,AUC(0-t),[12],209 ng·h/mL
same,bioavailability,[13],18.6%
same,bioavailability,[14],14.3%
same,Cmax,[15],429 ng/mL
same,IC50,[16],> 50 µM
